Two compounds from patent US20150174095A1, “PHARMACEUTICAL COMPOSITIONS FOR THE TREATMENT OF VISUAL SYSTEM DISORDERS” (Allergan, Inc., priority 2013, published 2015) can be followed below.

Where only a bound is given, the exact number is not on record here.

For experiment [1], the target named is T1, human ASCT2 (Homo sapiens, UniProt Q15758).
T1 construct: expressed in transfected cells; host or cells: HEK293 cells stably expressing ASCT2
T1 sequence (Q15758 1-541): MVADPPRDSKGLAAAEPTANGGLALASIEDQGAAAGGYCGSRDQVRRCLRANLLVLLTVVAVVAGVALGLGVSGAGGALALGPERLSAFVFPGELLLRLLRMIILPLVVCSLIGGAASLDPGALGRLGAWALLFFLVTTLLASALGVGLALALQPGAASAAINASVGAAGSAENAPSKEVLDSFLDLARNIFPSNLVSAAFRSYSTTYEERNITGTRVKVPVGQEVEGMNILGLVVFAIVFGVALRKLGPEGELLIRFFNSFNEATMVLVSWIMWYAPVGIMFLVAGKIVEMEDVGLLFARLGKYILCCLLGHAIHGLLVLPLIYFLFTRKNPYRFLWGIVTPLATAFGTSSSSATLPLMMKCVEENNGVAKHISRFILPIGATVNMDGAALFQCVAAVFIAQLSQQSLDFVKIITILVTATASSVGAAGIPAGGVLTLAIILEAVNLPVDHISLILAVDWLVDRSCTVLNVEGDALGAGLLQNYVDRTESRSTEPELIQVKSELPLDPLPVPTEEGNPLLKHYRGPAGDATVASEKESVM
Nature of the experiment: Whole cell patch-clamp transport currents in HEK cells expressing human ASCT2. The experiment is classed as cell-based. The conditions noted are these: for effect on substrate-evoked inward current: HEK ASCT2, with 0.3 mM L-serine; for current in the absence of applied substrate: HEK ASCT2, without L-serine. Here is the method: (§1) Patch-Clamp Recording in HEK 293 Cells (FIGS. 1A, 1B, 2A and 2B):
(§2) Transport currents were recorded in human embryonic kidney (HEK) cells expressing human ASCT1 or ASCT2 transporter using whole cell patch-clamp. Extracellular solution contains: 140 mM NaCl, 2.0 mM MgCl2, 2.0 CaCl2, 10 mM HEPES, pH 7.4. The recording pipettes were filled with ICM containing: 130 mM NaSCN, 10 mM EGTA, 2 mM MgCl2, 10 mM HEPES, 10 mM L-alanine pH 7.3. The inhibitory effects of compounds were measured without/with 300 μM L-serine and normalized to these by 4-hydroxy-phenyglycine (100%).
In general terms: The patch-clamp technique gives a direct electrical read-out from membranes.

The target of experiment [2] is T1, human ASCT2. The experiment is described as follows: [3H]L-serine transport into HEK cells expressing recombinant human ASCT2. The note with it: inhibition of [3H]L-serine transport, HEK cells with human ASCT2, n of 3-4; read-out: HEK1A5 ASCT2 IC50. The experiment is classed as cell-based. Here is the method:
(§3) Cell-based assays: the transport of [^3H]L- or D-serine was measured in primary cultures of rat hippocampal astrocytes or in human embryonic kidney (HEK) cells expressing ASCT transporter sub-types. For the astrocyte assays, cells were plated on either 24- or 96-well plates at a density of 50,000 cells per well. For the HEK assays, cells were plated on coated 96-well plates at a density of 80,000 cells/well. Assays were conducted in duplicate at room temperature in assay buffer consisting of: NaCl: 150 mM, KCl: 2 mM; MgCl2: 1 mM; CaCl2: 1 mM; HEPES: Tris buffer: 10 mM, pH7.4. To assess the sodium-dependence of transport, NaCl was replaced in the assay buffer by equimolar choline chloride. Following aspiration of growth medium and 2 washes with assay buffer, cells were incubated with [^3H]L- or D-serine at a final concentration of 1 μM for 5 min (astrocytes) or 1 min (HEK cells), after which the incubation medium was aspirated and the cells washed twice with ice-cold assay buffer. Cells containing radiolabel were solubilized in 100 μl of 1% Triton-X100 and an aliquot counted in a beta counter. IC50 values were determined over a range of at least 6 concentrations and derived from curve-fitting algorithms available in GraphPad Prism 4. Table 2 reflects the IC50 values for the inhibition of [^3H]L-serine transport into astrocytes and HEK cells expressing recombinant human ASCT1 or ASCT2. […]

In another experiment the test system is ASCT1/2. The experiment is described as follows: [3H]L-serine transport into primary rat hippocampal astrocytes. The experiment is classed as cell-based. The note with it: for IC50: inhibition of [3H]L-serine transport, rat astrocytes, 6-12 point curves, n of 3-4, read-out: Astro ASCT1/2 IC50; for inhibition of radiolabelled substrate transport: rat brain astrocytes in culture. On the procedure: Cell-based assays: the transport of [^3H]L- or D-serine was measured in primary cultures of rat hippocampal astrocytes or in human embryonic kidney (HEK) cells expressing ASCT transporter sub-types. For the astrocyte assays, cells were plated on either 24- or 96-well plates at a density of 50,000 cells per well. For the HEK assays, cells were plated on coated 96-well plates at a density of 80,000 cells/well. Assays were conducted in duplicate at room temperature in assay buffer consisting of: NaCl: 150 mM, KCl: 2 mM; MgCl2: 1 mM; CaCl2: 1 mM; HEPES: Tris buffer: 10 mM, pH7.4. To assess the sodium-dependence of transport, NaCl was replaced in the assay buffer by equimolar choline chloride. Following aspiration of growth medium and 2 washes with assay buffer, cells were incubated with [^3H]L- or D-serine at a final concentration of 1 μM for 5 min (astrocytes) or 1 min (HEK cells), after which the incubation medium was aspirated and the cells washed twice with ice-cold assay buffer. Cells containing radiolabel were solubilized in 100 μl of 1% Triton-X100 and an aliquot counted in a beta counter. IC50 values were determined over a range of at least 6 concentrations and derived from curve-fitting algorithms available in GraphPad Prism 4. Table 2 reflects the IC50 values for the inhibition of [^3H]L-serine transport into astrocytes and HEK cells expressing recombinant human ASCT1 or ASCT2. Values are IC50's in μM from 6-12 point inhibition curves, with an n of 3-4.

The target in experiment [3] is T2, human ASCT1 (Homo sapiens, UniProt P43007).
T2 construct: expressed in transfected cells; host or cells: HEK293 cells stably expressing ASCT1
T2 sequence (P43007 1-532): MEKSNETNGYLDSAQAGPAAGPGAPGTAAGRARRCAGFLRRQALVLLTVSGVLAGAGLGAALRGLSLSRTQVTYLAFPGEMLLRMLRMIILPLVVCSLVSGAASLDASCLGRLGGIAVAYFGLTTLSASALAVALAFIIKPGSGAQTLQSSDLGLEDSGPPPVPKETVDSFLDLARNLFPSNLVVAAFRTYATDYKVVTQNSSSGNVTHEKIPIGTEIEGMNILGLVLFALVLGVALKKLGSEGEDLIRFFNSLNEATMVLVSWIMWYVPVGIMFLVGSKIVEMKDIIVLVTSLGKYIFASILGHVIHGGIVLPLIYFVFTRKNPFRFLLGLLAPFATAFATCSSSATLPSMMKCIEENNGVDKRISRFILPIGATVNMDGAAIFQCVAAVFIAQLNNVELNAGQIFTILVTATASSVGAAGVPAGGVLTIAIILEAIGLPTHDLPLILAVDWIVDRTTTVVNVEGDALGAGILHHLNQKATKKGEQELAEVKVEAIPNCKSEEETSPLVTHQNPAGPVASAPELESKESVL
Nature of the experiment: Whole cell patch-clamp transport currents in HEK cells expressing human ASCT1. The experiment is classed as cell-based. The note with it: for effect on substrate-evoked inward current: HEK ASCT1, with 0.3 mM L-serine; for current in the absence of applied substrate: HEK ASCT1, without L-serine. Here is the method: as §1, §2

In experiment [4] the target is T2, human ASCT1. The experiment is described as follows: [3H]L-serine transport into HEK cells expressing recombinant human ASCT1. The experiment is classed as cell-based. The note with it: inhibition of [3H]L-serine transport, HEK cells with human ASCT1, n of 3-4; read-out: HEK1A4 ASCT1 IC50. On the procedure: as §3
In experiment [5] the test system is LTP in primary visual cortex. The experiment is described as follows: Visual cortex slice physiology: long-term potentiation (LTP). On the set-up: species or system rat. On the procedure:
Following decapitation of the rat, the brain was rapidly removed and immersed in ice-cold artificial cerebrospinal fluid (ACSF) containing 124 mM NaCl, 3 mM KCl, 1.25 mM KH2PO4, 3.4 mM CaCl2, 2.5 mM MgSO4, 26 mM NaHCO3, and 10 mM D-glucose. A block of visual cortex was created by removing the frontal ⅔ portion of the brain and the cerebellum. Coronal visual cortex slices of 375 μm were prepared from adult Sprague Dawley (SD) rats using a vibratome (VT 1000 S; Leica). The slices were maintained in an interface recording chamber perfused with preheated ACSF. Slices were continuously perfused with this solution at a rate of 1.00-1.50 ml/min while the surface of the slices was exposed to warm, humidified 95% O2/5% CO2 and maintained at 31±1° C. Visual cortex slices were allowed to recover for 1 hr before recording began. A single stimulating and recording electrode were placed in layer IV and III, respectively, to generate and record a field excitatory postsynaptic potentials (fEPSPs). […] This was repeated 2 additional times with a 1 minute intertrain interval, and the level of LTP was recorded for at least 30 min. Changes in amplitude of the synaptic response were used to measure the extent of LTP because it was determined to be the more consistent parameter than the slope of the response. […]

Take `O=C(O)[C@@H]1NC[C@H](OCc2cccc(Oc3ccccc3)c2)[C@H]1O` (stereo in doubt) [(2R,3S,4S)-3-hydroxy-4-[(3-phenoxybenzyl)oxy]pyrrolidine-2-carboxylic acid]: the “effect on substrate-evoked inward current” value on human ASCT2 [1] and at human ASCT1 [3] was “inhibited the substrate-evoked inward current” throughout. The “current in the absence of applied substrate” value at human ASCT2 [1] and on human ASCT1 [3] was “evoked an outward current” each time. Also, the IC50 at human ASCT2 [2] worked out at 65.2 µM; with ASCT1/2, 10.7 µM; at human ASCT1 [4] it was 46.4 µM. Further, the “inhibition of radiolabelled substrate transport” value in the experiment with ASCT1/2 is recorded as “completely inhibited”.

Consider `O=C(O)[C@@H]1NC[C@H](OCc2ccc(-c3ccccc3)cc2)[C@H]1O` (stereo in doubt) [(2R,3S,4S)-4-(biphenyl-4-ylmethoxy)-3-hydroxypyrrolidine-2-carboxylic acid], for which the “effect on substrate-evoked inward current” value on human ASCT2 [1] and at human ASCT1 [3] was “inhibited the substrate-evoked inward current” in each case. Moreover, the “current in the absence of applied substrate” value on human ASCT2 [1] and at human ASCT1 [3] was “evoked an outward current” in each case. The figures for the IC50 on human ASCT2 [2], in the experiment on ASCT1/2 and at human ASCT1 [4] were 2.8 µM, 0.6 µM and 3.6 µM, respectively. The “inhibition of radiolabelled substrate transport” value in the experiment on ASCT1/2 was “completely inhibited”. Besides, in experiment [5] (0.1 and 0.3 μM), the “effect on LTP in rat visual cortex slice” value is “dose-dependently facilitates long-term potentiation (LTP)”. Further, the “concentration that enhanced LTP in visual cortex” value in experiment [5] (rat visual cortex slice, as low as) is at most 0.1 µM.
